Experimental data taken from patent US20070059265A1, “Benzylidene-1,3-thiazolidine-2,4-dione compounds for stimulating or inducing the growth and/or for reducing the loss and/or for increasing the density of keratin fibers” (L'OREAL, priority 2005, published 2007).

Target: T1, type-1 15-PGDH (Homo sapiens, UniProt P15428)
T1 construct: made in house
T1 sequence (P15428 1-266): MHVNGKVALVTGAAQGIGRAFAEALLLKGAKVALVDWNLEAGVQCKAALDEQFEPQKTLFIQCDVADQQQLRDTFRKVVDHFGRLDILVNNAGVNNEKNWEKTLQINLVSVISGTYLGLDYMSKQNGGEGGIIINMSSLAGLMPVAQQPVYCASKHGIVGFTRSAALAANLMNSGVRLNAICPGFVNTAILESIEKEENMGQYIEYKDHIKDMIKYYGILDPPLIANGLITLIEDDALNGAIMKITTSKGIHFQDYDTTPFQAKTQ
Assay: Test on type-1 15-PGDH (spectrophotometric, 340 nm, PGE2 and β-NAD as substrates)
Type: biochemical
Details: 37° C.; for IC50: pH 7.4 Tris buffer, 50 μM Prostaglandin E2, 1.5 mM β-NAD
Description: The enzyme 15-PGDH is obtained as described in patent application FR 02/05067 filed in the name of L'Oréal, as a suspension in a medium adjusted to a concentration of 0.3 mg/mL and then blocked at −80° C. For the purposes of the test, this suspension is thawed and stored in ice.
In parallel, a 100 mM, pH 7.4 Tris buffer containing 0.1 mM of dithiothreitol (D5545, Sigma-Aldrich, L'isle D'Abeau Chesne, BP 701, 38297, Saint Quentin Fallavier), 1.5 mM of β-NAD (N6522, Sigma-Aldrich, L'isle D'Abeau Chesne, BP 701, 38297, Saint Quentin Fallavier), and 50 μM of Prostaglandin E2 (P4172, Sigma-Aldrich, L'isle D'Abeau Chesne, BP 701, 38297, Saint Quentin Fallavier) is prepared.
0.965 ml of this buffer (brought to 37° C. beforehand) is introduced into the cuvette of a spectrophotometer (Perkin-Elmer, Lambda 2) thermostatically maintained at 37° C., the measuring wavelength of which is set at 340 nm. 0.035 mL of enzymatic suspension at 37° C. is introduced into the cuvette concomitantly with the recording (corresponding to an increase in the optical density at 340 nm). The maximum reaction rate is recorded.

Row | SMILES | inhibition at 100 µM (at 100 μM of compound, pH 7.4, read-out: % inhibition of the enzymatic activity of 15-PGDH) [%] | IC50 [nM]
1 | O=C1NC(=O)/C(=C/c2ccccc2Oc2ccc(F)cc2)S1 [Compound 6] | 48 | 
2 | O=C1NC(=O)/C(=C/c2ccccc2Oc2ccc(Br)cc2F)S1 [Compound 10] |  | 1550
3 | CC(C)(C)c1ccc(Oc2cccc(/C=C3\SC(=O)NC3=O)c2)cc1 [Compound 16] |  | 200
